Measurements: the supplement of paper PMC10307832

Legend:
Experiment in all cases: relative viability (nuclei count vs DMSO), 5 days (fraction); higher = more cells survive
VX-702 + Bortezomib = compound: NC(=O)c1ccc(N(C(N)=O)c2c(F)cccc2F)nc1-c1ccc(F)cc1F [VX-702] + CC(C)C[C@H](NC(=O)[C@H](Cc1ccccc1)NC(=O)c1cnccn1)B(O)O [Bortezomib] (partner 0.002 µM)
In short: (§1)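 Lung cancer cell lines were seeded in 1536-well plates and dosed by pin tool the next day, with either a single drug or a fixed anchor-drug dose combined with five library-drug doses (not always all listed) spaced in √10 steps. Five days later, one step fixed the cells and stained their nuclei (final 0.05% Triton X-100, 1% formaldehyde, 1 ug/ml Hoechst), and nuclei were counted on 4× images. Relative viability is the nuclei count in treated wells divided by the count in vehicle wells, and each value is the median of duplicate plates.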

Dabrafenib + Alpelisib = compound: CC(C)(C)c1nc(-c2cccc(NS(=O)(=O)c3c(F)cccc3F)c2F)c(-c2ccnc(N)n2)s1 [Dabrafenib] + Cc1nc(NC(=O)N2CCC[C@H]2C(N)=O)sc1-c1ccnc(C(C)(C)C(F)(F)F)c1 [Alpelisib] (partner 2 µM)
In short: as §1

Dabrafenib + Olaparib = compound: CC(C)(C)c1nc(-c2cccc(NS(=O)(=O)c3c(F)cccc3F)c2F)c(-c2ccnc(N)n2)s1 [Dabrafenib] + O=C(c1cc(Cc2n[nH]c(=O)c3ccccc23)ccc1F)N1CCN(C(=O)C2CC2)CC1 [Olaparib] (partner 8 µM)
In short: as §1

VX-702 + Linsitinib = compound: NC(=O)c1ccc(N(C(N)=O)c2c(F)cccc2F)nc1-c1ccc(F)cc1F [VX-702] + C[C@]1(O)C[C@@H](c2nc(-c3ccc4ccc(-c5ccccc5)nc4c3)c3c(N)nccn32)C1 [Linsitinib] (partner 1 µM)
In short: as §1

| Cell Line | relative viability (VX-702 + Bortezomib; first compound 0.02 µM) | relative viability (VX-702 + Bortezomib; first compound 0.2 µM) | relative viability (VX-702 + Bortezomib; first compound 0.6325 µM) | relative viability (VX-702 + Bortezomib; first compound 2 µM) | relative viability (Dabrafenib + Alpelisib; first compound 0.003 µM) | relative viability (Dabrafenib + Alpelisib; first compound 0.009487 µM) | relative viability (Dabrafenib + Alpelisib; first compound 0.03 µM) | relative viability (Dabrafenib + Alpelisib; first compound 0.09487 µM) | relative viability (Dabrafenib + Alpelisib; first compound 0.3 µM) | relative viability (Dabrafenib + Olaparib; first compound 0.009487 µM) | relative viability (Dabrafenib + Olaparib; first compound 0.03 µM) | relative viability (Dabrafenib + Olaparib; first compound 0.09487 µM) | relative viability (Dabrafenib + Olaparib; first compound 0.3 µM) | relative viability (VX-702 + Linsitinib; first compound 0.02 µM) | relative viability (VX-702 + Linsitinib; first compound 0.2 µM) | relative viability (VX-702 + Linsitinib; first compound 0.6325 µM) | relative viability (VX-702 + Linsitinib; first compound 2 µM) | relative viability (Dabrafenib + Olaparib; first compound 0.003 µM) |
| --- | --- | --- | --- | --- | --- | --- | --- | --- | --- | --- | --- | --- | --- | --- | --- | --- | --- | --- |
| NCI-H2347 | 0.995 | 0.83 | 1.02 | 1.13 | 0.561 | 1.01 | 0.887 | 0.965 | 0.991 | 0.629 | 0.552 | 0.553 | 0.599 | 0.968 | 0.977 | 0.896 | 0.986 |  |
| NCI-H2405 | 1.04 | 0.604 | 0.702 | 0.977 |  | 0.768 |  | 0.644 | 0.701 | 0.838 | 0.674 | 0.804 | 0.89 | 0.914 | 0.981 | 0.896 | 0.982 |  |
| NCI-H3122 | 0.991 | 0.958 | 0.987 | 0.931 | 0.877 | 0.774 | 0.897 | 0.912 | 0.89 | 0.605 | 0.647 | 0.508 | 0.562 | 1.02 | 1.02 | 0.985 | 1.01 | 0.631 |
| PC-3 [JPC-3] | 0.836 | 0.796 | 0.966 | 0.809 | 1.01 | 0.996 | 1.02 | 0.907 | 0.956 | 1.24 | 1.18 | 1.07 | 1.24 | 0.966 | 1.01 | 1.03 | 1.05 |  |
| PC-14 | 0.888 | 0.852 | 0.854 | 0.991 | 0.901 | 0.946 | 0.938 | 0.892 | 0.833 | 0.293 | 0.241 | 0.283 | 0.338 | 0.965 | 0.943 | 1.04 | 1.04 | 0.237 |
| RERF-LC-KJ | 1.18 | 1.06 | 1.2 | 1.28 | 0.73 | 0.979 | 0.781 | 0.848 | 0.953 | 1 | 0.895 | 0.774 | 0.932 | 0.956 | 0.883 | 0.876 | 0.966 | 0.907 |
| SK-LU-1 | 1.15 |  | 1.19 | 1.8 | 0.915 | 1 | 0.869 | 0.714 | 0.691 | 0.521 | 0.372 | 0.347 | 0.406 | 1.06 | 1.03 | 1.08 | 1.22 |  |
| SW 1573 | 1.02 | 0.902 | 0.871 | 1 | 0.765 | 0.931 | 0.74 | 0.663 | 0.669 | 0.468 | 0.475 | 0.415 | 0.453 | 0.918 | 0.737 | 0.647 | 0.659 | 0.501 |
| UMC-11 | 0.717 | 0.666 | 0.689 | 0.827 | 1.08 | 1.01 | 1 | 0.937 | 0.935 | 0.879 | 0.354 | 0.317 | 0.427 | 0.949 | 0.985 | 0.851 | 1.08 | 0.443 |
